Tested on: ACE2-293T cells
Details: for Cell viability (%): 10 μM, 24 hours, ACE2-293T cells, vehicle group = 100%, mean ± SD (n = 3); for Cytotoxicity to ACE2-293T cells (result in words): dose of 10 μM

Molecule | Cell viability (%) | Cytotoxicity to ACE2-293T cells (result in words)
COc1cc2c3cc1Oc1c(OC)c(OC)cc4c1[C@@H](Cc1ccc(O)c(c1)Oc1ccc(cc1)C[C@@H]3N(C)CC2)N(C)CC4 [Berbamine] | 98.15 ± 3.04 | caused no harms to the ACE2-293T cells
COc1cc2c3cc1Oc1c(O)c(OC)cc4c1[C@@H](Cc1ccc(O)c(c1)Oc1ccc(cc1)C[C@@H]3N(C)CC2)N(C)CC4 [Obamegine] | 98.19 ± 1.11 | caused no harms to the ACE2-293T cells
Bersavine | 95.42 ± 2.33 | caused no harms to the ACE2-293T cells
